Consider three substances from US20070173456A1, “PREPTIN FRAGMENTS AND METHODS OF USE” (Auckland UniServices Limited, priority 2005, published 2007).

Assay [1] concerns isolated, perfused rat pancreas. As to conditions: infusion into isolated, Buchanan et al. 2001; cited from earlier work.
A further assay concerns rat osteoblasts. The assay can be described thus: Osteoblast proliferation, [3H]-thymidine incorporation. It counts as cell-based. The conditions noted are these: versus vehicle control; for proliferation of rat osteoblasts, as measured by thymidine incorporation (FIG. 1): primary fetal rat calvarial osteoblasts, peptide 1×10^−9 M, 20-24 hours; for proliferation of rat osteoblasts, as measured by thymidine incorporation, parallel comparison (FIG. 4): various concentrations, compared in parallel. As for the experimental part:
Osteoblasts were isolated from 20 day fetal rat calvariae as previously described (Cornish et al., American Journal of Physiology—Endocrinology & Metabolism 277: E779-E783, 1999). Briefly, calvariae were dissected aseptically and the frontal and parietal bones are stripped of their periosteum. Only the central portions of the bones, free from suture tissue, were collected. The calvariae were treated twice with phosphate buffered saline (PBS) containing 3 mM EDTA (pH 7.4) for 15 minutes at 37° C. in a shaking water bath. Calvariae were washed once in PBS and treated twice with 3 ml of collagenase (1 mg/ml) for 7 minutes at 37° C. After discarding supernatants from the first two collagenase digestions, calvariae were treated twice with 3 ml collagenase (2 mg/ml) for 30 minutes at 37° C. The supernatants from these third and fourth collagenase digestions were collected, pooled and centrifuged. The pelleted cells were washed in Dulbecco's modified Eagle's medium (DME) with 10% fetal calf serum (FCS), resuspended in DME/10% FCS, and placed in 75 cm^2 flasks. Cells were incubated under 5% CO2 and 95% air at 37° C. Cells were grown to confluence (approximately 5-6 days) and then subcultured.
To set up subcultures, cells were trypsinized in trypsin-EDTA (0.05%/0.53 mM), rinsed in minimal essential medium (MEM) with 5% FCS, resuspended in fresh medium, and seeded at 5×10^4 cells/ml in 24-well plates (0.5 ml cell suspension per well, i.e., 1.4×10^4 cells/cm^2).
To evaluate the proliferative responses of osteoblast cultures in the presence of preptin and various fragments of preptin, subconfluent cell cultures were growth arrested by incubation in MEM/0.1% bovine serum albumin 24 hours prior to addition of test compounds. Cells were cultured in the presence of full-length preptin (preptin 1-34), preptin 1-19, preptin 20-34, or in the absence of preptin compounds (control). Preptin compounds were added to a final concentration of 1×10^−9 M. A pulse of [^3H]-thymidine (1 […]) was added to each sample two hours prior to the end of each experimental incubation. The incubations were terminated 20-24 hours after addition of preptin compounds by washing the cells in MEM containing non-radioactive thymidine, followed by the addition of 10% trichloroacetic acid. The precipitate was washed twice either ethanol:ether (3:1) and the wells were desiccated at room temperature. The residue in each well was redissolved in 2 M KOH at 55° C. for 30 minutes, neutralized with 1 M HCl, and an aliquot was removed to quantitate incorporation of radioactivity in the samples. The results are depicted in FIG. 1. […] The results are representative of at least four independent assays.
A general note: Incorporation of labelled thymidine or its analogues reports DNA synthesis.

On to “Asp Val Ser Thr R1 R2 R3 Val Leu Pro Asp R4 Phe Pro Arg Tyr Pro Val Gly Lys Phe Phe R5 R6 Asp Thr Trp R7 Gln Ser R8 Rg Arg Leu [preptin 1-34, reference compound]”, for which the insulin secretion result in assay [1] was “significant increase in the second phase of secretion”. For the same substance, in the assay with rat osteoblasts, the “proliferation of rat osteoblasts, as measured by thymidine incorporation (FIG. 1)” value (shortened to “proliferation of rat osteoblasts … (FIG. 1)”) is given as “stimulated”.

With “preptin 20-34: a C-terminal fragment of preptin (KFFQYDTWKQSTQRL; Preptin; UniProt P01344 112-126, looked up, fragment) [reference compound]”, in the assay with rat osteoblasts, the “proliferation of rat osteoblasts … (FIG. 1)” value was “No enhancement of osteoblast proliferation was observed” and the “proliferation of rat osteoblasts, as measured by thymidine incorporation, parallel comparison (FIG. 4)” value is “did not stimulate a significant increase in proliferation at any of the concentrations tested”.

For the substance “Asp Val Ser Thr R1 R2 R3 Val Leu Pro Asp R4 Phe Pro Arg Tyr Pro Val Gly [preptin 1-19]”, in the assay with rat osteoblasts, the “proliferation of rat osteoblasts … (FIG. 1)” value is on record as “enhances osteoblast proliferation in vitro, to levels comparable to those stimulated by full-length preptin” and the “proliferation of rat osteoblasts, as measured by thymidine incorporation, parallel comparison (FIG. 4)” value is on record as “significant increase in proliferation at 1×10^−9M”.
